Experimental data reported in ChEMBL document CHEMBL4002586, “Aurone Mannich base derivatives as promising multifunctional agents with acetylcholinesterase inhibition, anti-β-amyloid aggragation and neuroprotective properties for the treatment of Alzheimer's disease” (Eur J Med Chem, 2017).
Calls of active or inactive are those of the source. The calls are words filed in the database; no cut-off is given here.

Assays:
Acetylcholinesterase [1] = target: T1, Acetylcholinesterase (Electrophorus electricus, UniProt O42275); assay: Inhibition of Electrophorus electricus AChE using acetylthiocholine iodide as substrate measured after 15 mins by Ellman's method
T1 sequence (O42275 whole entry): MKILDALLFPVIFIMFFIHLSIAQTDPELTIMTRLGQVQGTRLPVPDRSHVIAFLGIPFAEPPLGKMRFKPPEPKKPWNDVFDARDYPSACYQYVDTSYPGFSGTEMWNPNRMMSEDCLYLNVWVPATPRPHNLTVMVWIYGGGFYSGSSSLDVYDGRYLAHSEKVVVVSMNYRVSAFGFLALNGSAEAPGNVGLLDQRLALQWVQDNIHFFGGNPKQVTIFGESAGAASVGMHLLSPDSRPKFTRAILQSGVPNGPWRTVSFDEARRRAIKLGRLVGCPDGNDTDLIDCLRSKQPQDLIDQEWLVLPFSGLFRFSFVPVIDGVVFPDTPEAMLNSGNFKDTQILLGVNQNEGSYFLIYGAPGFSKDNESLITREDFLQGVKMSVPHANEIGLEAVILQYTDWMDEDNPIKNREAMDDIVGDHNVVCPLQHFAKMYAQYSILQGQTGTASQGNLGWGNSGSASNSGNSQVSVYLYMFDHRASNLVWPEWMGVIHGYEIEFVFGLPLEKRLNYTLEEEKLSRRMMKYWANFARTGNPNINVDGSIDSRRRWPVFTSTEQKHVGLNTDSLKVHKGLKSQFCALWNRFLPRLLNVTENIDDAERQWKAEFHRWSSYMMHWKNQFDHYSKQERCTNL

PC-12 [2] = assay: Neuroprotective activity against H2O2-induced damage in rat PC12 cells assessed as increase in cell viability at 1 to 50 uM pretreated for 2 hrs followed by H2O2 challenge measured after 24 hrs by MTT assay; format: functional, cell-based
[3] = Metal chelating activity assessed as compound-Zn2+ complex formation at 37.5 uM in presence of ZnCl2 after 30 mins by UV-visible spectrophotometric analysis; format: functional
PC-12 [4] = assay: Cytotoxicity against rat PC12 cells at <50 uM measured after 48 hrs by MTT assay; format: cell-based; settings: pc-12, 48 h
Acetylcholinesterase [5] = target: T2, Acetylcholinesterase (Rattus norvegicus, UniProt P37136); assay: Inhibition of AChE in rat brain cortex homogenates using acetylthiocholine iodide as substrate in presence of BuChE inhibitor tetraisopropyl pyrophosphoramide measured after 15 mins by Ellman's method
T2 sequence (P37136 whole entry): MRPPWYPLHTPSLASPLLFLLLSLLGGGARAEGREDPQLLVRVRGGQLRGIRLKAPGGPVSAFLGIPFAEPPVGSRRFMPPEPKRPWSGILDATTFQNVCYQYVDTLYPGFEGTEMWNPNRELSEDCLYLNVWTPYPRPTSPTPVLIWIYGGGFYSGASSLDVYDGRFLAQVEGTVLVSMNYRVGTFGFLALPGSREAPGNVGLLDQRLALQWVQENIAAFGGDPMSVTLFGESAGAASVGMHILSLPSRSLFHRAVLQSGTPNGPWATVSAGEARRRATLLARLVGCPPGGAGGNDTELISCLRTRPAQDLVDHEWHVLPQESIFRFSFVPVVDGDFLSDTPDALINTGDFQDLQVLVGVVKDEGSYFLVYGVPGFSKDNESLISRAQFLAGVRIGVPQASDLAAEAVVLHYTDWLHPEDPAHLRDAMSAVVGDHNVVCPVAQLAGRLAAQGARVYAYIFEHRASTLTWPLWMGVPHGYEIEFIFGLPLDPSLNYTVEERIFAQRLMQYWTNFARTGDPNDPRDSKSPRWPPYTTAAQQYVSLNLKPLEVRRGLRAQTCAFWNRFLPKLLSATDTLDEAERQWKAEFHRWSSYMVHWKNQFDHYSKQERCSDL

[6] = target: butyrylcholinesterase (BuChE) (Rattus norvegicus, UniProt Q9JKC1); assay: Inhibition of BuChE in rat serum at 50 uM using butyrylthiocholine as substrate measured after 15 mins by Ellman's method relative to control; settings: probe butyrylthiocholine
butyrylcholinesterase (BuChE), sequence (Q9JKC1 whole entry): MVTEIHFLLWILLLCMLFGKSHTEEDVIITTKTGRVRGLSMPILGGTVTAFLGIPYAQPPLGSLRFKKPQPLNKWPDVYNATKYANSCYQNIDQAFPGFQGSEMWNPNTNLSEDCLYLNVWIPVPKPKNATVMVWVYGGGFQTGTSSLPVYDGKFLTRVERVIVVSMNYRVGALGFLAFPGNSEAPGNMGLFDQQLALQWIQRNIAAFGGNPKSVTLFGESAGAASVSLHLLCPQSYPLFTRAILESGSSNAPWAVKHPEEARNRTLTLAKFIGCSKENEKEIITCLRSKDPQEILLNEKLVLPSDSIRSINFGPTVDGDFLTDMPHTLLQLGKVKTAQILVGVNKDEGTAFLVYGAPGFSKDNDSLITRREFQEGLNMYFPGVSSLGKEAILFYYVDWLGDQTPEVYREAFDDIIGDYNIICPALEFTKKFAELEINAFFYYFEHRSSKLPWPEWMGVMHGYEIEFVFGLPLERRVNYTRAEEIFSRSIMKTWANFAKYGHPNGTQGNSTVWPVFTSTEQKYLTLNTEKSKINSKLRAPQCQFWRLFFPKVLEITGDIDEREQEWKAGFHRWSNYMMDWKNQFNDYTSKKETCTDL

[7] = Metal chelating activity assessed as compound-Al3+ complex formation at 37.5 uM in presence of AlCl3 after 30 mins by UV-visible spectrophotometric analysis; format: functional
[8] = Antioxidant activity assessed as inhibition of AAPH-induced peroxyl radical generation at 5 uM measured as trolox equivalent preincubated for 15 mins followed by AAPH addition measured every 60 secs for 90 mins by ORAC-FL assay; format: functional
Acetylcholinesterase [9] = target: Acetylcholinesterase (Homo sapiens, UniProt P22303); assay: Inhibition of human erythrocyte AChE using acetylthiocholine iodide as substrate measured after 15 mins by Ellman's method
Acetylcholinesterase (Homo sapiens, UniProt P22303), sequence (P22303 whole entry, the tested form may be a part): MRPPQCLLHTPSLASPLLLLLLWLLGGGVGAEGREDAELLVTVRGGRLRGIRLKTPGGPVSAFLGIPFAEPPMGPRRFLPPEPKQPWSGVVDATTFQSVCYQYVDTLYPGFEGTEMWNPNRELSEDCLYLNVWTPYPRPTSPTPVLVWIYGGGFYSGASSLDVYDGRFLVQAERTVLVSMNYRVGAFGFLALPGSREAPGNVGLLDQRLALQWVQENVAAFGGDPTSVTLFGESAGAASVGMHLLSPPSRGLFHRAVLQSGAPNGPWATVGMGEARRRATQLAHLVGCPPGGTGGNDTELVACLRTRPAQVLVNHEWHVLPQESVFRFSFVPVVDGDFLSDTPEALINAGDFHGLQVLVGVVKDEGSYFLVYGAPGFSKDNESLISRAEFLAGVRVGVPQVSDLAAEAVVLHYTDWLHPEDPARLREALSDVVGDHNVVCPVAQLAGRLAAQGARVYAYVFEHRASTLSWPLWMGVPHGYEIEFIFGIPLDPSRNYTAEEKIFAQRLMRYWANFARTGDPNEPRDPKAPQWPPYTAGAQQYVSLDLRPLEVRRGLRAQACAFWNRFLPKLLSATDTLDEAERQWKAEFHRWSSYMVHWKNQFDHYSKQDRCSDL

[10] = target: Amyloid-beta precursor protein (Homo sapiens) (UniProt P05067); assay: Inhibition of self-induced aggregation of HFIP-treated human amyloid beta (1 to 42 residues) at 25 uM after 24 hrs by thioflavin T-based fluorometric assay relative to control
Amyloid-beta precursor protein (Homo sapiens), sequence (P05067 whole entry, the tested form may be a part): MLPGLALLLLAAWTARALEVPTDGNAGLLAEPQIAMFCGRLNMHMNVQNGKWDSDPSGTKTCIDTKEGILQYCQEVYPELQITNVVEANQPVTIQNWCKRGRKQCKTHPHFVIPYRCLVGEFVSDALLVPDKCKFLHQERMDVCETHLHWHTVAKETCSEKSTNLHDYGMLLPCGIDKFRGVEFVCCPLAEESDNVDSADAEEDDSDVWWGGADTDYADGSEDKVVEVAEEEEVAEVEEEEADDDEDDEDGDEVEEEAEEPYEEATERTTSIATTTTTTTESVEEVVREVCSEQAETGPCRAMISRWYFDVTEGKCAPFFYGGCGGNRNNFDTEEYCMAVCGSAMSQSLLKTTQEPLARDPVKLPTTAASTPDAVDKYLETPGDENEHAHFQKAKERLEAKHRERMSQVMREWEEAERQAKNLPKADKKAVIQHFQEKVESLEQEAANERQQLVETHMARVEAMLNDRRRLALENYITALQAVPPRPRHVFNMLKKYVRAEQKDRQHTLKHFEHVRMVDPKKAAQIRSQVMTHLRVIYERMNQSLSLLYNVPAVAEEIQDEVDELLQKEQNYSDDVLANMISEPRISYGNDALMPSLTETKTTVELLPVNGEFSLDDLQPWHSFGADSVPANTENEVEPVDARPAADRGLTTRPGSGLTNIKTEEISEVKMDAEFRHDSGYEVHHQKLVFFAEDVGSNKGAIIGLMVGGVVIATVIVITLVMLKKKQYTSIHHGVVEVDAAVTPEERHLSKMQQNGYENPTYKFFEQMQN

Acetylcholinesterase [11] = target: T1, Acetylcholinesterase; assay: Mixed-type inhibition of Electrophorus electricus AChE pretreated for 15 mins followed by varying levels of acetylthiocholine iodide substrate addition by Lineweaver-Burk plot analysis
[12] = Metal chelating activity assessed as mole fraction of compound required to show 2:1 stoichiometry for Cu2+-compound complex at 37.5 uM after 30 mins by UV-vis spectrophotometric method; format: functional
PC-12 [13] = assay: Neuroprotective activity against H2O2-induced damage in rat PC12 cells assessed as reduction in LDH release at 0.1 to 50 uM pretreated for 2 hrs followed by H2O2 challenge measured after 24 hrs; format: functional, cell-based
[14] = Metal chelating activity assessed as compound-Fe2+ complex formation at 37.5 uM in presence of FeSO4 after 30 mins by UV-visible spectrophotometric analysis; format: functional
[15] = Metal chelating activity assessed as compound-Cu2+ complex formation at 37.5 uM in presence of CuCl2 after 30 mins by UV-visible spectrophotometric analysis; format: functional
[16] = Permeability of compound at 100 ug/ml after 18 hrs by PAMPA; format: physicochemical; settings: read-out: permeability
[17] = target: T3, Amine oxidase [flavin-containing] A (Homo sapiens, UniProt P21397); assay: Inhibition of recombinant human MAO-A expressed in baculovirus infected BTI insect cells at 10 uM using kynuramine as substrate incubated for 30 mins by fluorescence assay relative to control; settings: 0.5 h
T3 sequence (P21397 whole entry): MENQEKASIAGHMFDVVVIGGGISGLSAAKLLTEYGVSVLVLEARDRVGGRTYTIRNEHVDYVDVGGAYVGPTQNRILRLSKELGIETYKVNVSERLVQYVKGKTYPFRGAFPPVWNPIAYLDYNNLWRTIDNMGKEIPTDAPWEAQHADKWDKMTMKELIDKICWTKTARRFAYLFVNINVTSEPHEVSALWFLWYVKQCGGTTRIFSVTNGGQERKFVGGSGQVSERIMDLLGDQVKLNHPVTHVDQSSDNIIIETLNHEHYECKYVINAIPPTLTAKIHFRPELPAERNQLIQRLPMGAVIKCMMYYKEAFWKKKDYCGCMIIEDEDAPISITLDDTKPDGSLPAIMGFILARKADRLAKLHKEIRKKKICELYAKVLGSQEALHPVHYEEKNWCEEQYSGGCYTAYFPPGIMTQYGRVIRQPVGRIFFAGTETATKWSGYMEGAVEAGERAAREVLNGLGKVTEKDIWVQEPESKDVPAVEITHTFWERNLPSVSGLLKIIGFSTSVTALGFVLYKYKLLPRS

[18] = Inhibition of Cu2+-mediated aggregation of human amyloid beta (1 to 42 residues) at 25 uM after 24 hrs by thioflavin T-based fluorometric assay relative to control; format: functional
[19] = target: T4, Amine oxidase [flavin-containing] B (Homo sapiens, UniProt P27338); assay: Inhibition of recombinant human MAO-B expressed in baculovirus infected BTI insect cells at 10 uM using kynuramine as substrate incubated for 30 mins by fluorescence assay relative to control; settings: 0.5 h
T4 sequence (P27338 whole entry): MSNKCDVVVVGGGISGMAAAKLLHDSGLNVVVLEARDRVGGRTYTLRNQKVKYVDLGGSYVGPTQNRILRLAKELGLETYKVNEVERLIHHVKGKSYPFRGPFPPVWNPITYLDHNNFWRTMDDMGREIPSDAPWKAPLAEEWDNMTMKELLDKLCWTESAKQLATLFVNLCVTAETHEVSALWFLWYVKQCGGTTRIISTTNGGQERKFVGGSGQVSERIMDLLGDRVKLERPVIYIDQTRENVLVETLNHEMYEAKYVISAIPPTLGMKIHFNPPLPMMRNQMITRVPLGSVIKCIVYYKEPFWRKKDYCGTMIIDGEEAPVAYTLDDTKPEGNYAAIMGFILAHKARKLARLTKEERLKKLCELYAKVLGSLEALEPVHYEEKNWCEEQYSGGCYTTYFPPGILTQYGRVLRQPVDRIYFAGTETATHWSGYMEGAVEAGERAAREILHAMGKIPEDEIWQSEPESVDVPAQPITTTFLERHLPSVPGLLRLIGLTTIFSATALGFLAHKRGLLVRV

COc1cc2c(cc1OC)C(=O)/C(=C/c1ccc(CN3CCCCC3)c(O)c1)O2
IC50 (Acetylcholinesterase [1]): 21.2 nM | Activity (PC-12 [2]): Active | Activity [3]: inactive | Activity (PC-12 [4]): Non-Toxic | IC50 (Acetylcholinesterase [5]): 8.78 nM | inhibition at 0.25 h, 50 µM [6]: 12.9% | Activity [7]: Active | Activity [8]: 1.66 equiv | IC50 (Acetylcholinesterase [9]): 37.1 nM | inhibition [10]: 58.1% | Ki (Acetylcholinesterase [11]): 12 nM | Activity [12]: 0.5 molar ratio | Activity (PC-12 [13]): Active | Activity [14]: Active | Activity [15]: Active | Papp at 18 h, 100 ug/ml [16]: 13.5 ×10⁻⁶ cm/s | inhibition at 10 µM [17]: 15.3% | inhibition [18]: 45.1% | inhibition at 10 µM [19]: 32%
